The values that follow come from patent publication US9180107B2 (NANOPHARMACEUTICALS LLC, priority 2009, dated 2015).

Where two headings read alike, the source gives them in different places.

Data set [1] concerns Human glioblastoma U87MG cells. Kind of data set: Anti-proliferation (total cell counts) in bellows cell culture system with pharmacodynamic modeling. It counts as cell-based. As to conditions: for decrease in cell counts compared with untreated control cells: 7-d treatment; for IC50: Homo sapiens, U-87 MG, nano-tetrac IC50 are hypothetical concentrations assuming all bound tetrac is available. Here is the method:
Each cell culture system is a compressible (bellows) 500 mL bottle which contains cell culture medium and specially-treated polymer flakes to which cells spontaneously attach and grow. Through moving bellows and porous membranes, the level of the medium in the bottle changes periodically. Consequently, the cells are alternately submerged in the culture medium, then exposed to 5% CO2/95% air which creates a dynamic interface between air and medium on the cell surface that maximizes nutrient uptake and oxygen transfer. The system provides a low shear, high aeration and foam-free culture environment. Proprietary treatment of the surfaces of the flakes enables seating and harvesting of cells and secreted proteins are readily isolated from the perfusate.
In a non-perfusion bellows cell culture system that was also used, the medium in each bottle was replaced by fresh medium every 24 h. In the perfusion bellows cell culture system, medium was progressively refreshed over 24 h, i.e., one complete change of medium occurred over 24 h.
In establishing the system, 5×10^7 cells were seeded in perfusion and non-perfusion bellows bottles and incubated overnight at 37° C. After that, flakes were harvested, trypsinized and cells were collected. Cell numbers were counted. The numbers of cells that attached to were 10-15×10^6 per bottle. For experiments, the perfusion bellows cell culture system was run for 2 d prior to starting experiments. The cell numbers at this point were about 30-50×10^6 cells/bottle. Cell cultures were then exposed to 1% FBS-containing medium. Tetrac or nano-tetrac was added to the medium in the reservoir bottle to achieve the final concentrations reported for each experiment.
The time course of cell counts of the various cancer lines treated with different concentrations of tetrac or nano-tetrac was modeled by utilizing the pooled approach in NONMEM VI (version 6.2). All time points and treatment arms within each experiment were modeled simultaneously. A mechanism-based model (see Bulitta et al., 2009. Antimicrob. Agents Chemother. 53:46-56) was adapted to describe the proliferation of cancer cells and the inhibition of proliferation by tetrac. This model assumes two populations of cells in different phases of the cell cycle: cells that are preparing for replication (phase 1) and cells that are immediately “pre-replication” (phase 2). Cells transition from phase 1 to phase 2 by a first-order growth rate constant, while replication from phase 2 to phase 1 is assumed to be fast (see FIG. 2).
[formula] [formula] [formula] where C1 is the number of cells in phase 1, C2 the number of cells in phase 2, k21 the first order rate constant for replication (transition from phase 2 to phase 1), and k12 the first-order growth rate constant for transition from phase 1 to phase 2. The total number of cells Ct is the sum of C1 and C2. Rep is the replication efficiency factor which is described by:
[formula] where Cmax is the maximum number of cells. Without tetrac, the replication efficiency factor approaches 2, which reflects a 100% probability of successful replication. InhR describes the inhibitory effect of tetrac on the probability of successful replication:
[formula] Where ImaxR is the maximum effect of tetrac on probability of successful replication and IC50R is the tetrac concentration needed to achieve a half-maximal effect. Inhk describes the inhibitory effect of tetrac on the rate of growth:
[formula] Where Imaxk is the maximum effect of tetrac on rate of growth and IC50k is the tetrac concentration needed to achieve a half-maximal effect. Results

Data set [2] is described as follows: Turnover rate (stability) of tetrac in the culture system. The class given is physicochemical. The procedure:
In LC/MS/MS experiments, medium samples (20 μL) were injected onto an HP 1100 series HPLC system (Agilent Technologies, Palo Alto, Calif., USA), equipped with a narrow-bore column Zorbax Eclipse XDB-C18 (5 μm, 150×2.1 mm; Agilent). Separation was performed using a mobile phase of 0.1% (v/v) acetic acid (A) and 100% acetonitrile (B), with a linear gradient of 20-60% B over 25 min. Flow rate was maintained at 0.2 mL min^−1 and elution was monitored by a diode array detector (200-600 nm). The LC effluent was then introduced into a turbo ion-spray source on a Q/STAR-XL quadruple/time-of-flight (TOF) hybrid mass spectrometer (Applied Biosystems, Foster City, Calif., USA). Negative ESI mass spectra were acquired over the range from m/z 100 to 400. The electrospray voltage was set at −4.5 kV and the source temperature was maintained at 475° C. […]
Human glioblastoma U87MG cells were treated with different concentrations of tetrac (10^−9-10^−5M) for 7 d and tetrac was replenished daily. The turnover rate of tetrac in the culture system was measured. Tetrac detected was 75% of the original concentration after 24 h incubation in medium with 10% FBS in the absence of cells at both room temperature and 37° C. […]

The mark [3] stands for this setting: U87MG, model parameter estimate.

As for `O=C(O)Cc1cc(I)c(Oc2cc(I)c(O)c(I)c2)c(I)c1` [tetrac, Tetraiodothyroacetic acid], the “decrease in cell counts compared with untreated control cells” value in data set [1] (10^−7 M) was greater than 28%; in data set [1] (10^−8 M), “more than 15%”. Further, the IC50 in data set [1] (U87MG, model parameter estimate, read-out: IC50R (effect on success of replication)) was 47.4 µM; in data set [1] (U87MG, model parameter estimate, read-out: IC50k (effect on rate of growth)), 0.047 µM. Also, in data set [1] (setting [3]), the “ImaxR (maximum effect on success of replication)” value was 0.92. For the same compound, the “Imaxk (maximum effect on rate of growth)” value in data set [1] (setting [3]) is listed as 0.57. Further, in data set [2] (24 h incubation in medium with 10% FBS, absence of cells, room temperature and 37° C.), the “Tetrac detected, % of the original concentration” value is given as 75%. Besides, the tetrac decay in data set [2] (incubated with cell cultures at 37° C.) amounted to 12%.
